# Source: patent US20130337485A1, “ENZYMATIC SYNTHESIS OF ACTIVE PHARMACEUTICAL INGREDIENT AND INTERMEDIATES THEREOF” (LEK PHARMACEUTICALS D.D, priority 2010, published 2013)
# How the values were obtained:
# [1] = molecular target: T1, membrane bound glucose dehydrogenase from E. coli, the Gcd (Escherichia coli, UniProt P15877); assay: Substrate specificity and pH optima of membrane bound glucose dehydrogenase Gcd (DCPIP method); format: biochemical; settings: for Activity of E. coli BL21(DE3) pET30/Gcd on substrate, lysate / Activity of E. coli BL21(DE3) pET30/Gcd on substrate, resting whole cell: 50 mM substrate, 5 μM PQQ, 10 mM MgCl2
# T1 construct: made in house; host or cells: E. coli BL21(DE3) carrying pET30/Gcd; not purified (resting whole cells or lysate), reconstituted with PQQ and MgCl2
# T1 sequence (P15877 1-796): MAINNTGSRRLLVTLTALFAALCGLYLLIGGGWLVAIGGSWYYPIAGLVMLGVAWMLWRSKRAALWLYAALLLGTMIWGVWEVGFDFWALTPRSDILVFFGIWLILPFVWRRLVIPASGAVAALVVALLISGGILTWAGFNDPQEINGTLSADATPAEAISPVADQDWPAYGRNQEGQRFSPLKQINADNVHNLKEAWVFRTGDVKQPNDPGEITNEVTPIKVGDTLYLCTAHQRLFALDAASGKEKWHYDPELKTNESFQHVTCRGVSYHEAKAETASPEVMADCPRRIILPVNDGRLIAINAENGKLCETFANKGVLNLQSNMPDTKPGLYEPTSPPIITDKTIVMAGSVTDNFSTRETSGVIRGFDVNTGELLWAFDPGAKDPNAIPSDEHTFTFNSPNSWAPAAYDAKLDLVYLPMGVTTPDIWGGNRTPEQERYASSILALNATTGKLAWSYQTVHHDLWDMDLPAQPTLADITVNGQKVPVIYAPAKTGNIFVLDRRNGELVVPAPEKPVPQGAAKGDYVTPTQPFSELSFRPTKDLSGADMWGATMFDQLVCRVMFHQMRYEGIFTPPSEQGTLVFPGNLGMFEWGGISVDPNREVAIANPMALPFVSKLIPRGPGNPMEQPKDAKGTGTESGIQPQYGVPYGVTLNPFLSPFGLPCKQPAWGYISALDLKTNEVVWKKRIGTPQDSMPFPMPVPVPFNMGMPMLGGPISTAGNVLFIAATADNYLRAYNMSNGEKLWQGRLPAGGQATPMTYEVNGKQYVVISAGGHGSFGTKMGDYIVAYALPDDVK
# Experimental: To investigate substrate specificity and pH optima of said E. coli membrane aldose dehydrogenase the above mentioned experiments were performed on the catalyst E. coli BL21 pET30/Gcd.
# [2] = molecular target: T2, E. coli YliI aldose dehydrogenase (Escherichia coli, UniProt P75804, A204V); assay: Substrate specificity and pH optima of E. coli YliI aldose dehydrogenase (DCPIP method); format: biochemical; settings: for Activity of E. coli BL21(DE3) pET30/Ylil on substrate, resting whole cell: 50 mM substrate, 5 μM PQQ, 10 mM MgCl2
# T2 construct: made in house; host or cells: E. coli BL21(DE3) carrying pET30/YliI; not purified (resting whole cells or cell free lysate), reconstituted with PQQ and MgCl2
# T2 sequence (P75804 21-371 A204V): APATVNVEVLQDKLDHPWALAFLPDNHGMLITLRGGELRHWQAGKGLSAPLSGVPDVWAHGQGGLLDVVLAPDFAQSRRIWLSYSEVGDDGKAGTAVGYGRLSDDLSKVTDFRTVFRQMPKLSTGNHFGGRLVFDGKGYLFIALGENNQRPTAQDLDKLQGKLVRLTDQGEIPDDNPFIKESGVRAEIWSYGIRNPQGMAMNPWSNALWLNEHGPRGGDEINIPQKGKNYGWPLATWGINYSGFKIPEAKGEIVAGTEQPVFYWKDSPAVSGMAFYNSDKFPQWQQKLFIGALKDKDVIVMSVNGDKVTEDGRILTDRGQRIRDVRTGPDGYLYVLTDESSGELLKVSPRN
# Experimental: (§1) Final volume of reaction mixture was 200 μL, all components were dissolved in phosphate buffer pH 8.0.
# (§2) The catalyst E. coli BL21 pET30/YliI culture obtained either as resting whole cell catalyst (obtained undertaking Procedure 1C) or as lysate (as described in Example 2). The initial pH value of reaction mixture was 8.0. All tested solutions were made in triplicates.
# (§3) The second reaction mixture was prepared identically to the above with a sole difference: the pH value of assembled mixture being 6.0 (all compounds of reaction mixture were dissolved in phosphate buffer pH 6.0 and the initial pH value of reaction mixture was thus 6.0). All tested solutions were made in triplicates.
# (§4) Experiment was performed as described in Example 11. In the table below are shown activities of “analyzed material” (abs[mAU min^−1 mg^−1])
# [3] = test system: whole cell catalyst E. coli BL21 pET30/Gcd; assay: Whole cell catalysis capability in bioreactor using pO2 sensor; format: cell-based; settings: pH 6.2, 37° C., 5 μM PQQ, 10 mM MgCl2
# Experimental: Laboratory bioreactors Infors ISF100 with maximal volume of 2 L were used for determination of whole cell catalysis capability of E. coli aldose dehydrogenases. The reactors were stirred, aerated, temperature and pH controlled as described below. When whole cell catalysts bearing holo aldose dehydrogenases were exposed to various substrates, unusual consumption of O2 appeared.
# Experiments were performed using whole cell catalyst E. coli BL21 pET30/Gcd (procedure of preparation in described in Example 1, Procedure 1A and moreover in Example 25).
# Whole cell catalysts were dissolved in phosphate buffer (50 mM KH2PO4, 150 mM NaCl, pH 6.2) to concentrations of 5 g/L, 10 g/L and 20 g/L to the final volume ([…] in the bioreactor.
# The initial process parameters before substrate was added were as follows: 37° C., air flow rate 1.0 L/min (1.0 VVM), stirrer speed 1000 rpm, pH 6.2 and the dissolved oxygen concentration was kept at ≧80% of saturation. 5 μM PQQ and 10 mM MgCl2 were provided into bioreactor broth. Feeding solution were 12.5% (v/v) ammonium hydroxide solution and the silicone antifoam compound synperonic antifoam (Sigma, A-5551) which were fed continuously.
# The system described above is very complex in terms of mathematical description of dissolved oxygen levels over the time. On the one hand these are depending on the kLa (vessel properties, stirring, aeration, medium, temperature etc) and enzymatic kinetics on the aldose dehydrogenase on the other hand. In addition the oxygen probe delay kinetics play an important role. We have therefore found empirically, that oxygen consumption in the phase after the pulse feed of the substrate till the minimum of the dissolved oxygen in this dynamic system is best correlated to quadratic equation. A good indicator of the activity potential of the studied biocatalyst is the slope of this quadratic equation, measured at specific time value (for example t=15 seconds). The slope was calculated from the first derivative of the quadratic equation.
# [4] = molecular target: T3, E. coli YliI aldose dehydrogenase (Escherichia coli, UniProt P75804); assay: Substrate specificity and pH optima of E. coli YliI aldose dehydrogenase (DCPIP method); format: biochemical; settings: 50 mM substrate, 5 μM PQQ, 10 mM MgCl2
# T3 construct: made in house; host or cells: E. coli BL21(DE3) carrying pET30/YliI; not purified (resting whole cells or cell free lysate), reconstituted with PQQ and MgCl2
# T3 sequence (P75804 21-371 A204V): as above
# Experimental: as §1, §2, §3, §4
# [5] = molecular target: glucose oxidase from A. niger (Aspergillus niger, UniProt P13006); settings: cited from earlier work
# Sequence of glucose oxidase from A. niger (P13006 17-605): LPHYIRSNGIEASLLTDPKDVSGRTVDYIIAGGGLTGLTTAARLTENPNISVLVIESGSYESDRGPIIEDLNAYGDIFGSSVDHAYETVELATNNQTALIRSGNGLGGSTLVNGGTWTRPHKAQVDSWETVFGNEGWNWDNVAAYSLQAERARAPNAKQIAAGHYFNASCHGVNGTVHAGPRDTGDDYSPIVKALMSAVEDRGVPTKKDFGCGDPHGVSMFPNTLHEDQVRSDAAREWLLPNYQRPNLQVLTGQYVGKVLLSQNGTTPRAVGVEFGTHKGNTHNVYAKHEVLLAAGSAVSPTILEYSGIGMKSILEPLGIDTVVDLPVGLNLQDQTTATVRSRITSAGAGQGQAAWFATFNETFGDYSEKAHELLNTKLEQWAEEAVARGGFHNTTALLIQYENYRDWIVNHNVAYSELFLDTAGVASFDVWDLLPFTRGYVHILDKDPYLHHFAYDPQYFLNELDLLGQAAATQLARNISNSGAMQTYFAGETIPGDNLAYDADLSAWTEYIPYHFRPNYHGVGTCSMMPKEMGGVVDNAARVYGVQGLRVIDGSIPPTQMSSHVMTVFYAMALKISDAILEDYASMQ
# [6] = whole cell catalyst BL21 (DE3) pET30/Gcd 5 g/L
# [7] = whole cell catalyst BL21 (DE3) pET30/Gcd 10 g/L
# [8] = whole cell catalyst BL21 (DE3) pET30/Gcd 20 g/L
Compound,"Activity of E. coli BL21(DE3) pET30/Gcd on substrate, lysate ([1]; pH 6.0)","Activity of E. coli BL21(DE3) pET30/Gcd on substrate, resting whole cell ([1]; pH 6.0)","Activity of E. coli BL21(DE3) pET30/Gcd on substrate, lysate ([1]; pH 8.0)","Activity of E. coli BL21(DE3) pET30/Gcd on substrate, resting whole cell ([1]; pH 8.0)","Activity of E. coli BL21(DE3) pET30/Ylil on substrate, resting whole cell ([2]; pH 6.0)","Activity of E. coli BL21(DE3) pET30/Ylil on substrate, resting whole cell ([2]; pH 8.0)","Activity of E. coli BL21(DE3) pET30/Ylil on substrate, lysate ([4]; pH 6.0)","Activity of E. coli BL21(DE3) pET30/Ylil on substrate, lysate ([4]; pH 8.0)","Reaction rate of oxidation by glucose oxidase, glucose as reference (100%) [5]",also measured
CC(=O)OC[C@@H]1C[C@@H](O)CC(=O)O1,–,–,–,–,–,–,–,–,–,"Added product concentration above which slight reduction in reaction rates was observed ([1]; E. coli BL21 pET30/Gcd, pH 6.0, in addition of 10 g/L substrate): more than 55 g/L; Added product concentration above which slight reduction in reaction rates was observed ([2]; E. coli BL21 pET30/YliI, pH 8.0, in addition of 10 g/L substrate): more than 35 g/L"
CC(=O)OC[C@@H]1C[C@@H](O)CC(O)O1 (stereo partly drawn),2403 abs[mAU min^−1 mg^−1],2403 abs[mAU min^−1 mg^−1],1013 abs[mAU min^−1 mg^−1],1105 abs[mAU min^−1 mg^−1],270 abs[mAU min^−1 mg^−1],1897 abs[mAU min^−1 mg^−1],273 abs[mAU min^−1 mg^−1],1913 abs[mAU min^−1 mg^−1],–,"Substrate concentration above which slight substrate inhibition to the reaction rate was observed ([1]; E. coli BL21 pET30/Gcd, pH 6.0): above 60 g/L; DCPIP discoloration rate compared with D-glucose or D-galactose as substrate ([1]; E. coli BL21 pET30/Gcd, pH 6.0, 2.5-10 g/L substrate): about two times slower; Slope of quadratic equation of oxygen consumption after substrate pulse [3, 6]: 38652; Slope of quadratic equation of oxygen consumption after substrate pulse [3, 7]: 87425; Slope of quadratic equation of oxygen consumption after substrate pulse [3, 8]: 163562; Substrate concentration above which slight substrate inhibition to the reaction rate was observed ([2]; E. coli BL21 pET30/YliI, pH 8.0): above 40 g/L; DCPIP discoloration rate compared with D-glucose or D-galactose as substrate ([2]; E. coli BL21 pET30/YliI, pH 8.0, 2.5-10 g/L substrate): about two times faster"
O=CC[C@@H](O)[C@H](O)[C@H](O)CO [2-deoxy-D-glucose],–,–,–,–,–,–,–,–,20-30%,–
CO[C@@H]([C@H](O)[C@@H](O)C=O)[C@H](O)CO [4-O-methyl-D-glucose],–,–,–,–,–,–,–,–,15%,–
C[C@@H](O)[C@@H](O)[C@H](O)[C@@H](O)C=O [6-deoxy-D-glucose],–,–,–,–,–,–,–,–,10%,–
O=C[C@H](O)[C@@H](O)[C@H](O)[C@H](O)CO [D-glucose],2830 abs[mAU min^−1 mg^−1],2840 abs[mAU min^−1 mg^−1],1305 abs[mAU min^−1 mg^−1],1260 abs[mAU min^−1 mg^−1],350 abs[mAU min^−1 mg^−1],356 abs[mAU min^−1 mg^−1],210 abs[mAU min^−1 mg^−1],321 abs[mAU min^−1 mg^−1],–,"Slope of quadratic equation of oxygen consumption after substrate pulse [3, 6]: 45813; Slope of quadratic equation of oxygen consumption after substrate pulse [3, 7]: 114771; Slope of quadratic equation of oxygen consumption after substrate pulse [3, 8]: 230631"
OCC(O)CO [glycerol],202 abs[mAU min^−1 mg^−1],215 abs[mAU min^−1 mg^−1],100 abs[mAU min^−1 mg^−1],102 abs[mAU min^−1 mg^−1],85 abs[mAU min^−1 mg^−1],247 abs[mAU min^−1 mg^−1],70 abs[mAU min^−1 mg^−1],235 abs[mAU min^−1 mg^−1],–,–
